Experimental data as given in patent US4337272A, “Amino-ethanol derivatives” (Valeas S. R. L. Industria Chimica E Farmaceutica, priority 1975, dated 1982).
Structures can show the parent of a compound that is named as a salt.

Legend:
[1] = test system: Guinea Pig airway constriction; conditions: i.v.; literature (Duhault et al.); cited from earlier work
[2] = Acute toxicity LD50 (Litchfield and Wilcoxon); conditions: in vivo
[3] = test system: bronchospasm induced by Acetilcholine in conscious guinea pig; assay: Prevention of acetylcholine-induced bronchospasm in conscious guinea pig by inhalation (Armitage method)

SMILES	active dose in the experimental bronchospasm according to Konzett-Rossler [1] [mg/kg]	LD50 [2] [mg/kg]	time before sign of dispnea (mean) [3] [s]
Cn1c(=O)c2[nH]cnc2n(C)c1=O [Theophylline]	25	–	–
COc1ccc(CC(C)NCC(O)c2cc(N)cc(CO)c2)cc1 (centres unmarked) [VAL 5000/PM, 1-(5-amino-3 hydroxymethyl) phenyl-2-(1 p-methoxyphenyl-2-propylamino)ethanol dihydrochloride]	–	295	475 ± 60
CC(C)NCC(O)c1cc(O)cc(O)c1 (centres unmarked) [Orciprenaline, reference compound]	–	380	502 ± 67
